Laboratory results published in patent US20090175788A1, “RADIOLABELLED LIGAND FOR THE GLYCINE 1 TRANSPORTER” (priority 2006, published 2009).

Experiments:
[1] = biological target: T1, glycine transporter subtype 1 (GlyT1) (Sus scrofa, UniProt A0A287AJD7); assay: PET imaging with pharmacological challenges (blocking of Compound A uptake by a selective GlyT1 inhibitor); assay type: in vivo; conditions: pig
T1 construct: from tissue; host or cells: brain of living anaesthetised pig (Yorkshire/Danish Landrace), in vivo PET
T1 sequence (A0A287AJD7 1-654): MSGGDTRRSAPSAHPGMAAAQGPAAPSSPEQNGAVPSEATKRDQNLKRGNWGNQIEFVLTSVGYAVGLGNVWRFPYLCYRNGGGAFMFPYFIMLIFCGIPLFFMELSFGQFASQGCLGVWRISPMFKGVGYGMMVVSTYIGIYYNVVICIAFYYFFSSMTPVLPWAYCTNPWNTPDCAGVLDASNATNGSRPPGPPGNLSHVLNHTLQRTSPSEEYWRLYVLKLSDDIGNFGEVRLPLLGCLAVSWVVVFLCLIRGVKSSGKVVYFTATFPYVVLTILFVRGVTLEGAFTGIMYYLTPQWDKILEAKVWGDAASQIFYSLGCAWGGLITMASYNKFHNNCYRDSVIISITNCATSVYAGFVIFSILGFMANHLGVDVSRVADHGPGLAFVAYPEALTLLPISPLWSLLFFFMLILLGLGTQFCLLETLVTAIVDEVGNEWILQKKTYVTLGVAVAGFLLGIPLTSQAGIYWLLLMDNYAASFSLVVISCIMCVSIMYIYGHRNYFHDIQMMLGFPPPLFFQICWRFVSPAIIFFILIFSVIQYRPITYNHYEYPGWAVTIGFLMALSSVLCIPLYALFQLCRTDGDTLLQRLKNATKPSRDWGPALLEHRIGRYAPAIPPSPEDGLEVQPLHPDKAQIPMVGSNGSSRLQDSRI
Method: (§1) The animals (pig, Yorkshire/Danish Landrace (˜40 Kg; n=2) were housed singly in thermostatically controlled (20° C.) and naturally illuminated stalls. They were scanned under terminal anaesthesia (ketamine induced isoflurane anaesthesia) on different days. The left femoral artery and vein of each animal were surgically cannulated using catheters (Avanti® size 4F-7F). Blood samples were collected from the femoral artery and the radiolabelled and non-labelled agents were injected into the femoral vein. Animals were placed supine in a Siemens ECAT EXACT HR tomograph, with the head immobilised in a custom-made holding device. During the study, blood pH, pCO2 and pO2 levels were monitored and maintained within the normal physiological range. In addition, BP and heart rate were recorded throughout the study. Compound A was administered intravenously into the femoral vein as a 1 minute bolus injection. PET scanning and arterial blood sampling was commenced upon start of the radioligand administration.
In a first study, two sequential high specific activity iv radioligand Compound A administrations were performed in same animal on the same day.
(§2) The PET data were analysed by using tracer kinetic modeling techniques to derive estimates of the tissue delivery (K1) and partition coefficient (PET volume of distribution—Vd). An input function representing the concentration of unchanged radiotracer in plasma was generated using discrete measures of the total plasma radioactivity and HPLC measures determining the parent radiotracer fraction. A generic tracer kinetic model (DEPICT) which estimates the tissues impulse response function was fitted to each of the individual tissue time activity curves to derive the appropriate parameters for each region (K1,Vd) (R. N. Gunn, S. R. Gunn, V. J. Cunningham. Cereb Blood Flow Metab. 2001, 21(6), 635-52; R. N. Gunn, S. R. Gunn, F. E. Turkheimer, J. A. Aston, V. J. Cunningham. J Cereb Blood Flow Metab. 2002, 22(12), 1425-39).

[2] = biological target: T1, glycine transporter subtype 1 (GlyT1); assay: PET imaging with Compound A in pig brain; assay type: in vivo
Method: as §1, §2

Structure (SMILES)	effect on Compound A uptake in the brain ([1]; escalating iv doses 0.001, 0.01 and 0.1 mg/kg, 5 min prior to Compound A)	GlyT1 saturation (occupancy) ([1]; high dose 0.5 mg/kg iv)	effect on specific uptake of radiotracer Compound A ([1]; high iv dose 0.5 mg/kg, 5 minutes prior to Compound A)	ED50 ([1]; increasing iv doses, PET, read-out: intravenous ED50 (change in Compound A derived Vd)) [mg/kg]	effect of pretreatment on K1 of Compound A ([1]; iv pretreatment)	regional brain distribution ([2]; pig brain, PET, compared with the known distribution of GlyT1)	time of peak brain uptake of radioactivity after administration ([2]; pig brain, iv, PET) [min]	brain entry of radiotracer ([2]; pig, iv 1 minute bolus, PET 0 to 90 min)	Extraction fraction (K1) ([2]; pig, stable across brain regions, tracer kinetic model (DEPICT)) [min⁻¹]
CN1CCCC[C@H]1[C@@H](NC(=O)c1cccc(C(F)(F)F)c1Cl)c1ccccc1 [2-chloro-N—[(S)-[(2S)-1-methyl-2-piperidinyl](phenyl)methyl]-3-(trifluoromethyl)benzamide]	dose-dependent decrease of compound A uptake in the brain	near complete GlyT1 saturation	the specific uptake of radiotracer was blocked	0.0225	not altered				
Cc1cccc(C)c1C(=O)NC(c1ccccc1)C1(N(C)[11CH3])CCCC1 (stereo not drawn) [Compound A, [^11C—N-methyl]-N-[[1-(dimethylamino)cyclopentyl](phenyl)methyl]-2,6-dimethylbenzamide]						higher accumulation in mid-brain, thalamus and cerebellum compared to cortical regions	25	readily enters the pig brain	0.06
